Assay results taken from patent US20130303509A1, “NAMPT INHIBITORS” (AbbVie Inc., priority 2012, published 2013).

System: PC3 cells
Experiment: NAMPT Cell Proliferation Assay
Assay type: cell-based
Conditions: Homo sapiens, PC-3, 120 h, 5 days incubation, cell viability by Cell Titer Glo
Description: NAMPT Cell Proliferation Assay
PC3 cells were seeded in 96-well black plates (Corning #3904) at 500 cells)Owell in 90 µl of RPMI media containing 10% heat-inactivated FBS and incubated overnight at 37° C. and 5% CO2 to allow cells to attach to wells. The following day, test compounds were serially diluted in neat DMSO to 1000× final concentrations prior to dilution with RPMI media to 10× and 1% DMSO. […] of the 10× compounds were then transferred to wells containing cells to produce a dose response of 10-fold dilutions from […] to 1×10^−[…]. Cells were incubated for 5 days at 37° C. and 5% CO2, then cell viability was measured using Cell Titer Glo reagent (Promega #G7571). Percent inhibition values were calculated and fitted to a sigmoidal dose response curves using Assay Explorer software to determine IC50s.

Row | SMILES | IC50 [nM]
1 | CC[C@H](C)C(=O)N1CCC(Oc2ccc(NC(=O)C3CN(c4cccnc4)C3)cc2)CC1 [Example 32, N-[4-({1-[(2S)-2-methylbutanoyl]piperidin-4-yl}oxy)phenyl]-1-(pyridin-3-yl)azetidine-3-carboxamide] | 6.54
2 | O=C(Nc1ccc(S(=O)(=O)C2CCN(C(=O)c3cc(F)ccc3F)CC2)cc1)C1CN(c2cccnn2)C1 [Example 576, N-(4-{[1-(2,5-difluorobenzoyl)piperidin-4-yl]sulfonyl}phenyl)-1-(pyridazin-3-yl)azetidine-3-carboxamide] | 84.8
3 | CC(=O)N1CCC(c2ccc(NC(=O)C3CN(c4cccnc4)C3)cc2)CC1 [Example 118, N-[4-(1-acetylpiperidin-4-yl)phenyl]-1-(pyridin-3-yl)azetidine-3-carboxamide] | 0.22
4 | O=C(Nc1ccc(C2CCN(C(=O)c3cccs3)CC2)cc1)C1CN(c2cccnn2)C1 [Example 376, 1-(pyridazin-3-yl)-N-{4-[1-(thiophen-2-ylcarbonyl)piperidin-4-yl]phenyl}azetidine-3-carboxamide] | 0.62
5 | O=C(Nc1ccc(OC2CCN(C(=O)Cc3cc(F)cc(F)c3)CC2)cc1)C1CN(c2ccnnc2)C1 [Example 291, N-[4-({1-[(3,5-difluorophenyl)acetyl]piperidin-4-yl}oxy)phenyl]-1-(pyridazin-4-yl)azetidine-3-carboxamide] | 73.6
6 | O=C(NC1CN(c2cccnn2)C1)c1ccc(C2CCN(C(=O)CC(F)(F)F)CC2)s1 [Example 849, N-[1-(pyridazin-3-yl)azetidin-3-yl]-5-[1-(3,3,3-trifluoropropanoyl)piperidin-4-yl]thiophene-2-carboxamide] | 685
7 | CC(C)C(C)C(=O)N1CCC(c2ccc(NC(=O)[C@H]3CCN(c4cccnn4)C3)cc2)CC1 (stereo partly drawn) [Example 680, (3S)-N-{4-[1-(2,3-dimethylbutanoyl)piperidin-4-yl]phenyl}-1-(pyridazin-3-yl)pyrrolidine-3-carboxamide] | 3.55
8 | O=C(Nc1ccc(C2CCN(C(=O)CC3CCCC3)CC2)cc1)[C@H]1CCN(c2ccnnc2)C1 [Example 142, (3S)—N-{4-[1-(cyclopentylacetyl)piperidin-4-yl]phenyl}-1-(pyridazin-4-yl)pyrrolidine-3-carboxamide] | 741
9 | COCC(=O)N1CCC(c2ccc(NC(=O)C3CN(c4cccnn4)C3)cc2)CC1 [Example 333, N-{4-[1-(methoxyacetyl)piperidin-4-yl]phenyl}-1-(pyridazin-3-yl)azetidine-3-carboxamide] | 5.68
10 | Cc1ccncc1N1CC(C(=O)Nc2ccc(OC3CCN(C(=O)CC4CCOCC4)CC3)cc2)C1 [Example 5, 1-(4-methylpyridin-3-yl)-N-(4-{[1-(tetrahydro-2H-pyran-4-ylacetyl)piperidin-4-yl]oxy}phenyl)azetidine-3-carboxamide] | 6.75
11 | O=C(Nc1ccc(OC2CCN(C(=O)CC3CC3)CC2)cc1)C1CN(c2ccnnc2)C1 [Example 293, N-(4-{[1-(cyclopropylacetyl)piperidin-4-yl]oxy}phenyl)-1-(pyridazin-4-yl)azetidine-3-carboxamide] | 72.3
12 | Cc1ncccc1N1CC(C(=O)Nc2ccc(C3CCN(C(=O)c4cc(Cl)cc(Cl)c4)CC3)cc2)C1 [Example 154, N-{4-[1-(3,5-dichlorobenzoyl)piperidin-4-yl]phenyl}-1-(2-methylpyridin-3-yl)azetidine-3-carboxamide] | 803
13 | O=C(Nc1ccc(OC2CCN(C(=O)c3ccccc3F)CC2)cc1)C1CN(c2ccnnc2)C1 [Example 289, N-(4-{[1-(2-fluorobenzoyl)piperidin-4-yl]oxy}phenyl)-1-(pyridazin-4-yl)azetidine-3-carboxamide] | 53.2
14 | O=C(Nc1ccc(C2CCN(C(=O)Cc3cc(F)ccc3F)CC2)cc1)C1CN(c2cccnn2)C1 [Example 373, N-(4-{1-[(2,5-difluorophenyl)acetyl]piperidin-4-yl}phenyl)-1-(pyridazin-3-yl)azetidine-3-carboxamide] | 5.95
15 | CC(C)(C)CC(=O)N1CCC(S(=O)(=O)c2ccc(NC(=O)C3CN(c4cccnn4)C3)cc2)CC1 [Example 595, N-(4-{[1-(3,3-dimethylbutanoyl)piperidin-4-yl]sulfonyl}phenyl)-1-(pyridazin-3-yl)azetidine-3-carboxamide] | 80.6
16 | O=C(Nc1ccc(C2CCN(C(=O)C3CC3)CC2)cc1)[C@H]1CCN(c2cccnn2)C1 [Example 662, (3S)-N-{4-[1-(cyclopropylcarbonyl)piperidin-4-yl]phenyl}-1-(pyridazin-3-yl)pyrrolidine-3-carboxamide] | 15.9
17 | O=C(Nc1ccc(C2CCN(C(=O)c3cc(C(F)(F)F)ccc3Cl)CC2)cc1)[C@H]1CCN(c2cccnn2)C1 [Example 690, (3S)-N-(4-{1-[2-chloro-5-(trifluoromethyl)benzoyl]piperidin-4-yl}phenyl)-1-(pyridazin-3-yl)pyrrolidine-3-carboxamide] | 3.14
18 | O=C(Nc1ccc(OC2CCN(C(=O)C3CCOC3)CC2)cc1)[C@H]1CCN(c2cccnc2)C1 (stereo partly drawn) [Example 15, (3S)-1-(pyridin-3-yl)-N-(4-{[1-(tetrahydrofuran-3-ylcarbonyl)piperidin-4-yl]oxy}phenyl)pyrrolidine-3-carboxamide] | 34.7
19 | O=C(Nc1ccc(C2CCN(C(=O)Cc3ccc(F)cc3F)CC2)cc1)C1CN(c2ccnnc2)C1 [Example 536, N-(4-{1-[(2,4-difluorophenyl)acetyl]piperidin-4-yl}phenyl)-1-(pyridazin-4-yl)azetidine-3-carboxamide] | 6.14
20 | Cc1ccc(C(=O)N2CCC(c3ccc(NC(=O)[C@H]4CCN(c5cccnn5)C4)cc3)CC2)cc1F [Example 719, (3S)-N-{4-[1-(3-fluoro-4-methylbenzoyl)piperidin-4-yl]phenyl}-1-(pyridazin-3-yl)pyrrolidine-3-carboxamide] | 9.63
21 | O=C(Nc1ccc(OC2CCN(C(=O)Cc3ccc(F)cc3F)CC2)cc1)C1CN(c2cccnn2)C1 [Example 236, N-[4-({1-[(2,4-difluorophenyl)acetyl]piperidin-4-yl}oxy)phenyl]-1-(pyridazin-3-yl)azetidine-3-carboxamide] | 9.25
22 | C=CCC(=O)N1CCC(c2ccc(NC(=O)C3CN(c4cccnn4)C3)cc2)CC1 [Example 330, N-{4-[1-(but-3-enoyl)piperidin-4-yl]phenyl}-1-(pyridazin-3-yl)azetidine-3-carboxamide] | 1.38

Continued by falling IC50, values first:

Row | IC50 [nM] | SMILES
23 | 86.8 | CC(C)Cn1cc(-c2ccc(C(=O)NC3CN(c4cccnn4)C3)s2)cn1 [Example 315, 5-[1-(2-methylpropyl)-1H-pyrazol-4-yl]-N-[1-(pyridazin-3-yl)azetidin-3-yl]thiophene-2-carboxamide]
24 | 79.1 | O=C(Nc1ccc(OC2CCN(C(=O)[C@@H]3CCCO3)CC2)cc1)[C@H]1CCN(c2cccnc2)C1 [Example 13, (3S)-1-(pyridin-3-yl)-N-[4-({1-[(2S)-tetrahydrofuran-2-ylcarbonyl]piperidin-4-yl}oxy)phenyl]pyrrolidine-3-carboxamide]
25 | 76.1 | CC(C)Cn1cc(-c2ccc(NC(=O)C3CN(c4ccnnc4)C3)cc2)cn1 [Example 148, N-{4-[1-(2-methylpropyl)-1H-pyrazol-4-yl]phenyl}-1-(pyridazin-4-yl)azetidine-3-carboxamide]
26 | 64.1 | O=C(Nc1ccc(-c2cc(C3CC3)nn2CCO)cc1)C1CN(c2cccnn2)C1 [Example 817, N-{4-[3-cyclopropyl-1-(2-hydroxyethyl)-1H-pyrazol-5-yl]phenyl}-1-(pyridazin-3-yl)azetidine-3-carboxamide]
27 | 61.1 | O=C(NC1CN(c2cccnn2)C1)c1ccc(C2CCN(C(=O)c3ccccc3)CC2)s1 [Example 810, 5-(1-benzoylpiperidin-4-yl)-N-[1-(pyridazin-3-yl)azetidin-3-yl]thiophene-2-carboxamide]
28 | 59.9 | CCCCN1CCC(c2ccc(NC(=O)C3CN(c4cccnc4)C3)cc2)CC1 [Example 91, N-[4-(1-butylpiperidin-4-yl)phenyl]-1-(pyridin-3-yl)azetidine-3-carboxamide]
29 | 41.1 | CC(C)(C)OC(=O)N1CCC(c2ccc(C(=O)NC3CN(c4cccnn4)C3)s2)CC1 [Example 808, tert-butyl 4-(5-{[1-(pyridazin-3-yl)azetidin-3-yl]carbamoyl}thiophen-2-yl)piperidine-1-carboxylate]
30 | 12.6 | O=C(Nc1ccc(OC2CCN(C(=O)c3ccccc3F)CC2)cc1)[C@H]1CCN(c2cccnn2)C1 [Example 797, (3S)-N-(4-{[1-(2-fluorobenzoyl)piperidin-4-yl]oxy}phenyl)-1-(pyridazin-3-yl)pyrrolidine-3-carboxamide]
31 | 9.02 | CCCC(=O)N1CCC(c2ccc(NC(=O)[C@H]3CCN(c4cccnn4)C3)cc2)CC1 [Example 681, (3S)-N-[4-(1-butanoylpiperidin-4-yl)phenyl]-1-(pyridazin-3-yl)pyrrolidine-3-carboxamide]
32 | 6.58 | CCC(C)(C)C(=O)N1CCC(Oc2ccc(NC(=O)C3CN(c4cccnn4)C3)cc2)CC1 [Example 248, N-(4-{[1-(2,2-dimethylbutanoyl)piperidin-4-yl]oxy}phenyl)-1-(pyridazin-3-yl)azetidine-3-carboxamide]
33 | 6.28 | O=C(Nc1ccc(OC2CCN(C(=O)C3CCCC3)CC2)cc1)C1CN(c2cccnc2)C1 [Example 52, N-(4-{[1-(cyclopentylcarbonyl)piperidin-4-yl]oxy}phenyl)-1-(pyridin-3-yl)azetidine-3-carboxamide]
34 | 1.37 | O=C(Nc1ccc(C2CCN(C(=O)C3CCCO3)CC2)cc1)C1CN(c2cccnn2)C1 (stereo not shown) [Example 412, 1-(pyridazin-3-yl)-N-{4-[1-(tetrahydrofuran-2-ylcarbonyl)piperidin-4-yl]phenyl}azetidine-3-carboxamide]
